How the values were obtained:
Experiment in all cases: relative viability (nuclei count vs DMSO), 5 days (fraction); higher = more cells survive
[1] = compound: Cc1ccc(Nc2nccc(N(C)c3ccc4c(C)n(C)nc4c3)n2)cc1S(N)(=O)=O [Pazopanib] + CS(=O)(=O)CCNCc1ccc(-c2ccc3ncnc(Nc4ccc(OCc5cccc(F)c5)c(Cl)c4)c3c2)o1 [Lapatinib] (partner 2 µM)
In short: (§1)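 Lung cancer cell lines were pin-tool dosed in 1536-well plates on the day after seeding, with either a lone drug or a fixed anchor-drug dose plus five library-drug doses (not always all listed) in √10 steps. Nuclei were counted on 4× images after 5 days. Relative viability is the ratio of treated-well to vehicle-well nuclei counts, with each value a median of duplicate plates.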

[2] = compound: Cc1ccc(C(=O)Nc2ccc(CN3CCN(C)CC3)c(C(F)(F)F)c2)cc1C#Cc1cnc2cccnn12 [Ponatinib] + Cc1cc(Nc2cc(N3CCN(C)CC3)nc(Sc3ccc(NC(=O)C4CC4)cc3)n2)n[nH]1 [Tozasertib] (partner 0.1 µM)
In short: as §1

[3] = compound: Cc1ccc(C(=O)Nc2ccc(CN3CCN(C)CC3)c(C(F)(F)F)c2)cc1C#Cc1cnc2cccnn12 [Ponatinib] + N=C(N)NC(=N)NCCc1ccccc1 [Phenformin] (partner 250 µM)
In short: as §1

[4] = compound: Cc1ccc(Nc2nccc(N(C)c3ccc4c(C)n(C)nc4c3)n2)cc1S(N)(=O)=O [Pazopanib] + CC(C)C[C@H](NC(=O)[C@H](Cc1ccccc1)NC(=O)c1cnccn1)B(O)O [Bortezomib] (partner 0.002 µM)
In short: as §1

Cell Line	relative viability ([1]; first compound 0.01 µM)	relative viability ([1]; first compound 0.03162 µM)	relative viability ([1]; first compound 0.1 µM)	relative viability ([1]; first compound 0.3162 µM)	relative viability ([1]; first compound 1 µM)	relative viability ([2]; first compound 0.002 µM)	relative viability ([2]; first compound 0.006325 µM)	relative viability ([2]; first compound 0.06325 µM)	relative viability ([2]; first compound 0.2 µM)	relative viability ([3]; first compound 0.002 µM)	relative viability ([3]; first compound 0.006325 µM)	relative viability ([3]; first compound 0.06325 µM)	relative viability ([3]; first compound 0.2 µM)	relative viability ([4]; first compound 0.01 µM)	relative viability ([4]; first compound 0.03162 µM)	relative viability ([4]; first compound 0.1 µM)	relative viability ([4]; first compound 0.3162 µM)	relative viability ([4]; first compound 1 µM)
201T	0.971	0.998	1.04	1.04	1.06	0.924	1.01	0.966	0.926	0.417	0.458	0.438	0.42	1.09	1.14	1.13	1.1	1.11
A549	0.967	0.977	1.07	1.1	0.914					0.161	0.142	0.142	0.147					
A-427	0.992	1.07	1	1.06	1.22	0.23	0.227	0.198	0.167	0.34	0.398	0.244	0.225	0.934	1.02	0.929	0.922	1.02
ABC-1		1.32	1.37	0.91	1.27	0.213	0.147	0.141	0.204	0.215	0.23	0.224	0.263	0.257	0.293	0.212	0.316	0.343
BEN		0.574	0.721	0.808	0.774	0.544	0.52	0.486	0.533	0.253	0.288	0.253	0.264	0.581	0.725	0.76	0.917	0.874
CAL-12T	0.483	0.669	0.69	0.733	0.816	0.317	0.259	0.268	0.265	0.529	0.541	0.668	0.601	1.05	1.01	0.843	1.04	1.35
COR-L23	0.966	1.07	1.06	1.2	1	0.209	0.213	0.171	0.142	0.382	0.453	0.419	0.436	1.23	1.08	1.12	0.935	1.02
COR-L 105	0.342	0.414	0.386	0.341	0.401	0.304	0.343	0.372	0.316	0.421	0.479	0.501	0.466	0.903	0.859	0.684	0.765	0.977
Calu-6	1.07	1.14	1.21	0.999	0.96									0.928	1.06	1.04	0.932	0.957
ChaGo-K-1						0.234	0.213	0.177	0.209	0.423	0.447	0.477	0.466	1.12	1.1	0.952	0.91	0.951
EBC-1	0.184	0.251	0.232	0.247	0.232									0.524	0.602	0.712	0.519	0.65
EKVX	0.183	0.213	0.231	0.344	0.297	0.386	0.45	0.375	0.314	0.231	0.25	0.234	0.249	1.09	1.02	1	0.996	1.02
EMC-BAC-2	0.735	0.921	0.915	0.904	0.991	0.285	0.275	0.277	0.239	0.495	0.449	0.508	0.487	0.889	1.11	1.1	1.04	1.22
EPLC-272H	0.638	0.797	1.01	1.14	0.802	0.246	0.394	0.365	0.307	0.305	0.336	0.292	0.316	0.765	1.07	0.843	1.12	1.1
H3255	0.203	0.26	0.248	0.285	0.256	0.606	0.638	0.561	0.459	0.366	0.366	0.393	0.329	0.695	0.723	0.75	1.06	0.92
HARA	0.582	0.746	0.58	0.725	0.695	0.0958	0.111	0.0906	0.0762	0.446	0.437	0.44	0.388	1.14	1.08	1.25	1.22	1.08

From the supplement of paper PMC10307832
